“And” between values parts separate entries of the source, which are not always exact repeats. Equal entries are not always repeated.
Tests used:
Type in all cases: in vivo
paperwhite narcissus = test: Paperwhite narcissus bulbs cultured in 700 μm silicate beads, root treatment; details: 16 days after treatment; n=6; p=0.01; controls 30 cc
Experimental: Plants were cultivated under controlled environmental conditions as follow: GE Ecolux® plant and aquarium F40T12 fluorescent illumination, photosynthetically active radiation (PAR) of 100 μEin·m^−2·s^−1, diel cycle of 16:8 h light:dark, 28:26° C., 10% to 20% relative humidity. Indoxyl glycopyranoside (IG) was formulated in water and applied and controls were given equal volumes of water without IG. […] Clear plastic 500 cc containers, perforated for drainage, were filled to a depth of 10 cm with up to 900 grams of microbeads each. Initially, basal plates of bulbs were immersed 1 cm into moistened 700 μm nmd silicate beads to initiate rooting. Within a week, first roots emerged and each bulb was treated with 0.1 ml of aqueous 10 mM IG. Controls were treated with addition of 0.1 ml water to their media. After 8 h uptake of the treatments, fertigation resumed in a manner consistent with pH-control. In another case, 0.3 mM 4-amino-phenyl-α-D-mannopyranoside (APM) was dissolved in water with 3 ppm Mn as EDTA, 6 ppm Ca as EDTA. A solution of the formulation was applied to rooted Crocus. APM-treated plants were compared to plants given identical control formulation without APM. […]
[…] For paperwhites, volumes of entire roots were measured by displacement of water in glass beakers. […]

corn = test: Corn cultured in 700 μm silicate beads, root treatment; details: 1 mM IG
Experimental: Individual plants were started from seeds, bulbs, or vegetative clones, inserted into containers of pre-moistened microbeads. Seedlings included ryegrass and corn; bulbs were of Crocus and paperwhite narcissus; and vegetative cuttings were from Coleus. Seeds generally germinated and were selected according to day of emergence of first roots as control and treatment sets. Roots were treated thereafter.
Plants were cultivated under controlled environmental conditions as follow: GE Ecolux® plant and aquarium F40T12 fluorescent illumination, photosynthetically active radiation (PAR) of 100 μEin·m^−2·s^−1, diel cycle of 16:8 h light:dark, 28:26° C., 10% to 20% relative humidity. Indoxyl glycopyranoside (IG) was formulated in water and applied and controls were given equal volumes of water without IG. […] Clear plastic 500 cc containers, perforated for drainage, were filled to a depth of 10 cm with up to 900 grams of microbeads each. Initially, basal plates of bulbs were immersed 1 cm into moistened 700 μm nmd silicate beads to initiate rooting. Within a week, first roots emerged and each bulb was treated with 0.1 ml of aqueous 10 mM IG. Controls were treated with addition of 0.1 ml water to their media. After 8 h uptake of the treatments, fertigation resumed in a manner consistent with pH-control. In another case, 0.3 mM 4-amino-phenyl-α-D-mannopyranoside (APM) was dissolved in water with 3 ppm Mn as EDTA, 6 ppm Ca as EDTA. A solution of the formulation was applied to rooted Crocus. APM-treated plants were compared to plants given identical control formulation without APM. Within five hours of treatment and, through fertigation, thereafter, all container cultures were regularly given equal volumes of nutribead solution. Controls were placed side-by-side and cultivated, likewise.
For all experiments, at 7 d to 14 d after treatment, microbeads were saturated with water. Immediately, individual plants gently were pulled and lifted out of the water-saturated silicate microbeads by hand. […] For paperwhites, volumes of entire roots were measured by displacement of water in glass beakers. […]

Radish seedlings = test: Radish seedling assay, immersion in nutrient solution with α-mannosides
Experimental: Plants were cultured in research facilities and consistency of response to treatments was achieved by supplementation with chelated calcium and manganese. All plants were regularly given modified Hoagland water-culture nutrients. […] Controls were placed in the same location and all plants were given the same irrigation, fertilizers, and handling, but without the experimental compounds. Plants were matched to controls and treated within a week of emergence of cotyledon and true leaves. The performance of compounds was evaluated by comparing means of individual dry weights of shoots and roots. Statistics applied two-tailed Student's t-test with p-values significant within 95% confidence intervals. Counts of populations are “n” values and standard error is denoted “±SE.” Specialty chemicals included the following: tetramethyl-β-D-glucoside (TMG); tetraacetyl-D-glucopyranose (TAG); pentaacetyl-α-D-mannopyranose (MP); p-amino-phenyl-α-D-mannoside (APM); methyl-α-D-mannoside (MeM) and methylglucoside (MeG). MPG was synthesized. 2,3,4,6-tetra-O-acetyl-D-mannopyranose (αβ) was utilized. As required, MP and APM were dissolved in a lower aliphatic alcohol prior to dilution in aqueous media.
Assay—Radish seedlings were treated with α-mannosides after emergence of radicles. Seedlings were matched and transferred to Nutrient Control or treatment solutions. Assays were maintained under environmental conditions as follow: Photosynthetically active radiation 100 μEin·m^−2·sec^−1, diel cycle of 16:8 h light:dark, 26:26° C.

[1] = tested on: Swiss Chard (Beta vulgaris subspecies cicla L., cultivar "Fordhook Giant"); test: Swiss Chard germination and seedling growth on glass microbead substratum; details: media containing 100 μM MeM
Experimental: Treatment of seeds and seedlings by aqueous solutions is exemplified by mannosides supplemented with soluble divalent cations in complete mannosides formulations. […] Benefits of such exemplary seed priming methods are as follows: Germination and early growth of radish (Raphanus sativus L., cultivar “Cherry Bell”) and Swiss Chard (Beta vulgaris subspecies cicla L., cultivar “Fordhook® Giant”) were tested for response to α-mannosides supplemented with Ca^2+ and/or Mn^2+. Rapid assays of radish seed germination and growth used hydroponic cultures with no solid medium; longer experiments with Swiss Chard used a 2-5 mm substratum of 700 μm diameter glass microbeads. […] A seed with an emerged radicle >1 mm was recorded as germinated, and germinated seeds were counted daily, until 95% germination. […]

[2] = tested on: radish (Raphanus sativus L., cultivar "Cherry Bell"); test: Radish seed germination and seedling growth, nutrient omission media; details: glycoside alone, no divalent cations
Experimental: Treatment of seeds and seedlings by aqueous solutions is exemplified by mannosides supplemented with soluble divalent cations in complete mannosides formulations. […] Benefits of such exemplary seed priming methods are as follows: Germination and early growth of radish (Raphanus sativus L., cultivar “Cherry Bell”) and Swiss Chard (Beta vulgaris subspecies cicla L., cultivar “Fordhook® Giant”) were tested for response to α-mannosides supplemented with Ca^2+ and/or Mn^2+. Rapid assays of radish seed germination and growth used hydroponic cultures with no solid medium; longer experiments with Swiss Chard used a 2-5 mm substratum of 700 μm diameter glass microbeads. Neutralization of glass microbeads may be undertaken with dilute mildly acidic solution titrated to pH 6; for example, with mineral acids such as hydrochloric acid, sulfuric acid, nitric acid, and the like; organic acids such as uronic, citric, malic, lactic, salicylic, ascorbic, succinic, oxaloacetic, ketoglutaric, fumaric acids, and amino acids, and the like; artificial biological buffering agents such as TRIS, BIS TRIS, MES, MOPS, HEPES, and the like; fertilizers; and most preferably, phosphates; and the most highly preferred compounds are combinations of compounds in a pH 6-buffer that provide major nutrients for plants, such as MAP with DKP or DAP with MKP; and the like. When test medium was added, the glass microbeads formed an even layer, drawing liquid to the surface by capillary action. Seeds were examined to exclude aberrantly large, small, or damaged seeds, and were placed on the surface of the substratum. For experiments using post-germination seedlings, seeds were germinated in deionized water prior to exposure to nutrient media. A seed with an emerged radicle >1 mm was recorded as germinated, and germinated seeds were counted daily, until 95% germination. There was no visible evidence of either desiccation or waterlogging effects. Glass microbeads were removed by immersion and agitation in water, or manually with fine forceps. Harvested plants were oven-dried to determine dry weight. Treatment and control solutions were prepared by dissolving nutrients in deionized ultrapure water.
Growth media were based on omission or inclusion of glycosides and targeted divalent cations. Triose is the abbreviation for α-1,3-α-1,6 mannotriose) and MEM is methyl-α-D-mannoside. Terminology used herein indicates the omission or inclusion of nutrients: 000=control medium with no glycoside, Ca^2+ or Mn^2+; MeMOO=medium with MeM, but no Ca^2+ or Mn^2+; MeMCaO=medium with MeM and Ca^2+, but no Mn^2+, OCaMn=medium with no MeM, but with Ca^2++Mn^2+; and so on. Similar terminology is used for media containing triose. Results cited are means±SE. […]

[3] = tested on: radish "Cherry Bell" Raphanus sativus L.; test: Greenhouse foliar treatment of radish, root dry weight
Experimental: Plant responses to formulations of an alkyl-α-D-mannopyranose and an electron donating-aryl-α-D-mannopyranose were consistent with preferred binding tendencies to displace glucose from storage. Plants were maintained in automated greenhouses controlled for temperature, light and circulation. Environmental conditions during the course of the studies averaged 13:11 hour L:D photoperiod, 25°:20° C. day:night and 20% to 80% relative humidity. Sunlight was supplemented with electrical illumination to achieve photosynthetically active radiation levels ranging from 350 to 600 μmol photons·m^−2·s^−1 at the level of the phylloplane. Solutions for treated and control plants were applied within an hour, otherwise subjecting all plants to identical conditions consistent with good laboratory practices. Solutions applied to controls included nutrients and surfactants identical to the treatment solution, but without the active compound. General supplementation of foliar formulations included the following: 10-100 mM ammonium salt; 1-6 ppm manganese, Mn-EDTA; and 5-10 ppm calcium, Ca-EDTA. For example, foliar solutions of 0.3 mM p-aminophenylmannopyranoside, hereafter referred to as APM, were supplemented with 23 mM ammonium sulfate, (NH4)2SO4, 3 ppm Mn and 6 ppm Ca; and Nutrient Control contained 23 mM (NH4)2SO4, 3 ppm Mn and 6 ppm Ca. The foliar concentrations of Mn and Ca were higher than those specified previously because of the low volumes of foliar applications relative to hydroponic root immersion volumes, and they were particularly effective in combination with foliar applications of compounds because they supported high rates of productivity in the treated plants without phytotoxicity. Compounds for experimentation included the following: methyl-α-D-mannopyranoside (MeM), APM, and methyl-α-D-glucopyranoside (MeG). All foliar solutions were formulated with 1 gm/liter surfactant blend consisting of 0.5 gram DowCorning Q5211 dispersed into 1.5 grams BASF Pluronic L62. As a matter of course, untreated controls that foliar nutrients and wetting agents were not introducing artifacts. The standard volume for foliar application of experimental treatments was 200 liters/hectare. Identical volumes of foliar spray per tray of plant cultures were applied mechanically in a single pass. Controls were placed in the same location and given identical irrigation and handling as the treated plants. To compare the effects of treatments under tightly controlled conditions, plants were cultured, harvested, cleaned and weighed as per previously described methods. Treated plants were statistically analyzed in comparisons against controls. Each survey population held sufficient replicate sample numbers to make meaningful statistical analyses utilizing SPSS® software. Significance was determined at the 95% confidence interval (CI) of the difference. Counts of population numbers are denoted as “n” values. For experiments, radish “Cherry Bell” Raphanus sativus L., a root crop was planted and treated. […] Therefore, least concentrations were selected for statistical experimentation; and 200 l/ha foliar 1 mM MeM or 0.3 mM APM in nutrient-supplemented formulations were applied to 5 cm tall sprouts; while, Nutrient Controls were given foliar applications of identical solutions without the α-D-glycopyranosides; and no foliar solutions were applied to untreated controls which were otherwise identically cultivated and irrigated. For our quantification experiments, when improvements of root productivity over those of nutrient controls were visibly discernible 12 d after treatment, all populations of controls and treatments were harvested, and individual dry weights of treatment and control populations were analyzed.

Compound	mean root volume (paperwhite narcissus)	taproot total length (corn; after a week, control 5 cm)	dry weight of entire plant (corn; control plant 0.2 g)	dry weight of separated roots (corn; control roots 0.03 g)	enhancement of mean dry weight over Nutrient Control (Radish seedlings; 25 μM, 48 h)	mean dry weight of whole plants (Radish seedlings; 25 μM, 48 h)	enhancement of mean dry weight over Nutrient Control (Radish seedlings; 50 μM, 48 h)	mean dry weight of whole plants (Radish seedlings; 50 μM, 48 h)	mean dry weight of whole plants (Radish seedlings; 100 μM, 48 h)	visual comparison with Nutrient Control (Radish seedlings; 500 μM, 24 h)	enhancement of mean dry weight over Nutrient Control (Radish seedlings; 500 μM, 48 h)	mean dry weight of whole plants (Radish seedlings; 500 μM, 48 h)	growth response compared to Nutrient Control (visual) (Radish seedlings; 48 h, 1 mM TAM, 100 μM MP, 25 μM to 500 μM MeM, 10 μM APM)	germination rates compared with media without the glycoside [1]	effect on plant growth / seedling yields without Ca2+ and Mn2+ [2]	root mean dry weight over the Nutrient Control ([3]; foliar 1 mM with nutrients)	root weight increase over controls ([3]; foliar 1 mM, 200 l/ha, harvest 12 d after treatment, n=72, p=0.001)	active concentration applied for growth response ([3]; foliar, radish)
Indoxyl glycopyranoside [IG]	37 cc per plant	7 cm	0.3 g	0.04 g														
CO[C@H]1O[C@H](CO)[C@@H](O)[C@H](O)[C@@H]1O [MeM, methyl-α-D-mannopyranoside]					12% and ~11%	10 mg	11%	11 mg	10.9 mg	enhanced pigmentation and general growth	11%	10.3 mg	advanced growth responses	consistently higher	no significant effect	highly significant (n=72; p=0.001) increase	30%	1 mM

Source: patent US11147219B2, “Methods and systems for growing plants using silicate-based substrates, cultivation of enhanced photosynthetic productivity and photosafening by utilization of exogenous glycopyranosides for endogenous glycopyranosyl-protein derivatives, and formulations, process and systems for the same” (Innovation Hammer, LLC, priority 2011, dated 2021)
